According to patent US12264134B2 (Merck Sharp & Dohme LLC, priority 2018, dated 2025):
pIC50: −log10 of the molar value.

Assays:
IDO1 [1] = biological target: T1, IDO1 (Homo sapiens, UniProt P14902); experiment: IDO1 Cellular Assay in HeLa Cells Stimulated with IFNγ; format: cell-based; settings: read-out: HeLa Cell Potency, IC50
IDO1 [2] = biological target: T1, IDO1; experiment: IDO1 Human Whole blood Assay; format: cell-based; parameters: Human whole blood was drawn in sodium heparin coated tubes from healthy internal donors; from tissue; host or cells: human whole blood from healthy donors, stimulated with LPS and IFNγ; settings: LPS and IFNγ stimulated, 18 h, read-out: Human Whole Blood Potency, IC50
How it was run: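 LC/MS/MS of kynurenine, normalized to spiked isotope-labeled standard (3 μM final), served as the readout. Beforehand, fresh human blood with compound (15 min preincubation) was stimulated overnight (18 h, 37 °C) with 100 ng/mL LPS/IFNγ. IC50 was obtained by four-parameter curve fitting.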

T1 sequence (P14902 whole entry): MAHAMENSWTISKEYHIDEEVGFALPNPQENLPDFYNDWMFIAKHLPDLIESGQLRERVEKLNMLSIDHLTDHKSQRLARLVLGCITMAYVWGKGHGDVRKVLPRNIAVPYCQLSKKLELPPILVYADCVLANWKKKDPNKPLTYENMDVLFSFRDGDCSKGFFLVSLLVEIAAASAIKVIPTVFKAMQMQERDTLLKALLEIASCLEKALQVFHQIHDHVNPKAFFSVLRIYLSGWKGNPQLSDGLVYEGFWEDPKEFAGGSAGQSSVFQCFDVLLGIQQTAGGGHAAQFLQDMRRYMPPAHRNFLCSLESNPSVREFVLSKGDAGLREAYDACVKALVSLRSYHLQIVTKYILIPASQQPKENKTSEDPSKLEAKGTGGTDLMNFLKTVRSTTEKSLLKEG

| Structure (SMILES) | pIC50 (IDO1 [1]) | pIC50 (IDO1 [2]) |
| --- | --- | --- |
| Cc1cccc(N2CCN(C(=O)Cn3nc(C(=O)N4C[C@@H](C)O[C@@H](C)C4)c4c3[C@@H]3C[C@@H]3C4)CC2)c1C [Example 296, 2-{(4aR,5aR)-3-[(2R,6S)-2,6-dimethylmorpholine-4-carbonyl]-4,4a,5,5a-tetrahydro-1H-cyclopropa[4,5]cyclopenta[1,2-c]pyrazol-1-yl}-1-[4-(2,3-dimethylphenyl)piperazin-1-yl]ethan-1-one] | 8.10 | 6.27 |
| Cc1cccc(N2CCN(C(=O)Cn3nc(C(=O)N4CC[C@@H](O)[C@@H](F)C4)c4c3CC(F)C4)CC2)c1C (single isomer, unassigned) [Example 419] | 7.97 | 5.94 |
| Cc1cccc(N2CCN(C(=O)Cn3nc(C(=O)N4CCC5(CO)CC4C5)c4c3C[C@H]3C[C@@H]43)C(C)(C)C2)c1C [Example 333, 1-[4-(2,3-dimethylphenyl)-2,2-dimethylpiperazin-1-yl]-2-{(3bR,4aR)-3-[5-(hydroxymethyl)-2-azabicyclo[3.1.1]heptane-2-carbonyl]-3b,4,4a,5-tetrahydro-1H-cyclopropa[3,4]cyclopenta[1,2-c]pyrazol-1-yl}ethan-1-one] | 8.06 | < 5.00 |
| Cc1cccc(N2CCN(C(=O)Cn3nc(C(=O)N4CC[C@@H](C(C)(C)O)C4)c4c3C[C@H]3C[C@@H]43)CC2)c1C [Example 230, 1-[4-(2,3-dimethylphenyl)piperazin-1-yl]-2-{(3bR,4aR)-3-[(3R)-3-(2-hydroxypropan-2-yl)pyrrolidine-1-carbonyl]-3b,4,4a,5-tetrahydro-1H-cyclopropa[3,4]cyclopenta[1,2-c]pyrazol-1-yl}ethan-1-one] | 8.95 | 6.10 |
| Cc1cccc(N2CCN(C(=O)Cn3nc(C(=O)N4CC[C@H](O)[C@H](F)C4)c4c3C[C@H]3C[C@@H]43)C(C)(C)C2)c1C [Example 331, 1-[4-(2,3-dimethylphenyl)-2,2-dimethylpiperazin-1-yl]-2-{(3bR,4aR)-3-[(3R,4S)-3-fluoro-4-hydroxypiperidine-1-carbonyl]-3b,4,4a,5-tetrahydro-1H-cyclopropa[3,4]cyclopenta[1,2-c]pyrazol-1-yl}ethan-1-one] | 7.07 | 5.04 |
| Cc1cccc(N2CCN(C(=O)Cn3nc(C(=O)N4CCC(O)(CF)CC4)c4c3C[C@H]3C[C@@H]43)C(C)(C)C2)c1C [Example 332, 1-[4-(2,3-dimethylphenyl)-2,2-dimethylpiperazin-1-yl]-2-{(3bR,4aR)-3-[4-(fluoromethyl)-4-hydroxypiperidine-1-carbonyl]-3b,4,4a,5-tetrahydro-1H-cyclopropa[3,4]cyclopenta[1,2-c]pyrazol-1-yl}ethan-1-one] | 7.16 | 5.02 |
| Cc1cccc(N2CCN(C(=O)Cn3nc(C(=O)N4CC[C@@H](O)C[C@@H]4C)c4c3C[C@H]3C[C@@H]43)CC2)c1C [Example 290, 1-[4-(2,3-dimethylphenyl)piperazin-1-yl]-2-{(3bR,4aR)-3-[(2S,4R)-4-hydroxy-2-methylpiperidine-1-carbonyl]-3b,4,4a,5-tetrahydro-1H-cyclopropa[3,4]cyclopenta[1,2-c]pyrazol-1-yl}ethan-1-one] | 8.69 | 6.11 |
| Cc1c(F)ccc(N2CCN(C(=O)Cn3nc(C(=O)N4C[C@@H](C)O[C@@H](C)C4)c4c3CCC4)CC2)c1C [Example 48, 2-{3-[(2R,6S)-2,6-dimethylmorpholine-4-carbonyl]-5,6-dihydrocyclopenta[c]pyrazol-1(4H)-yl}-1-[4-(4-fluoro-2,3-dimethylphenyl)piperazin-1-yl]ethan-1-one] | 8.53 | 6.31 |
| Cc1cccc(N2CCN(C(=O)Cn3nc(C(=O)N4CCC(O)C(F)C4)c4c3CCC4)C3(CC3)C2)c1C (single isomer, unassigned) [Example 393, 1-(7-(2,3-dimethylphenyl)-4,7-diazaspiro[2.5]octan-4-yl)-2-(3-(3-fluoro-4-hydroxypiperidine-1-carbonyl)-5,6-dihydrocyclopenta[c]pyrazol-1(4H)-yl)ethanone] | 8.12 | 6.01 |
| Cc1cccc(N2CCN(C(=O)Cn3nc(C(=O)N4CCC(O)(CF)CC4)c4c3C[C@H]3C[C@@H]43)CC2)c1C [Example 276, 1-[4-(2,3-dimethylphenyl)piperazin-1-yl]-2-{(3bR,4aR)-3-[4-(fluoromethyl)-4-hydroxypiperidine-1-carbonyl]-3b,4,4a,5-tetrahydro-1H-cyclopropa[3,4]cyclopenta[1,2-c]pyrazol-1-yl}ethan-1-one] | 8.69 | 6.96 |
| Cc1c(Cl)cccc1N1CCN(C(=O)Cn2nc(C(=O)N3CCN(C(=O)CO)CC3)c3c2C[C@H]2C[C@@H]32)CC1 [Example 352, 1-(4-(3-chloro-2-methylphenyl)piperazin-1-yl)-2-((3bR,4aR)-3-(4-(2-hydroxyacetyl)piperazine-1-carbonyl)-3b,4,4a,5-tetrahydro-1H-cyclopropa[3,4]cyclopenta[1,2-c]pyrazol-1-yl)ethanone] | 8.93 | 7.10 |

The next lines start with the values.

| pIC50 (IDO1 [1]) | pIC50 (IDO1 [2]) | Structure (SMILES) |
| --- | --- | --- |
| 8.92 | 7.44 | Cc1c(F)ccc(N2CCN(C(=O)Cn3nc(C(=O)N4CCC(O)CC4)c4c3CCCC4)CC2)c1C [Example 451, 1-(4-(4-fluoro-2,3-dimethylphenyl)piperazin-1-yl)-2-(3-(4-hydroxypiperidine-1-carbonyl)-4,5,6,7-tetrahydro-1H-indazol-1-yl)ethanone] |
| 8.58 | 7.19 | CC(=O)NC1CCN(C(=O)c2nn(CC(=O)N3CCN(c4cccc(C)c4C)CC3)c3c2CCCC3)CC1 [Example 471, N-(1-(1-(2-(4-(2,3-dimethylphenyl)piperazin-1-yl)-2-oxoethyl)-4,5,6,7-tetrahydro-1H-indazole-3-carbonyl)piperidin-4-yl) acetamide] |
| 8.72 | 7.06 | Cc1cccc(N2CCN(C(=O)Cn3nc(C(=O)N4CC[C@H](O)[C@@H](F)C4)c4c3CCCC4)CC2)c1C [Example 468, 1-(4-(2,3-dimethylphenyl)piperazin-1-yl)-2-(3-((3S,4S)-3-fluoro-4-hydroxypiperidine-1-carbonyl)-4,5,6,7-tetrahydro-1H-indazol-1-yl)ethanone] |
| 7.95 | 5.61 | Cc1cccc(N2CCN(C(=O)Cn3nc(C(=O)N4CCCC4)c4c3CCC(F)C4)CC2)c1C (single isomer, unassigned) [Example 8, 1-(4-(2,3-dimethylphenyl)piperazin-1-yl)-2-(5-fluoro-3-(pyrrolidine-1-carbonyl)-4,5,6,7-tetrahydro-1H-indazol-1-yl)ethanone] |
| 8.45 | 6.76 | Cc1cccc(N2CCN(C(=O)Cn3nc(C(=O)N4CCC(N5CCNC5=O)CC4)c4c3CCC4)CC2)c1C [Example 130, 1-[1-(1-{2-[4-(2,3-dimethylphenyl)piperazin-1-yl]-2-oxoethyl}-1,4,5,6-tetrahydrocyclopenta[c]pyrazole-3-carbonyl)piperidin-4-yl]imidazolidin-2-one] |
| 8.05 | 7.10 | Cc1cccc(N2CCN(C(=O)Cn3nc(C(=O)N4CCN(CC(N)=O)CC4)c4c3CCC4)CC2)c1C [Example 165, 2-[4-(1-{2-[4-(2,3-dimethylphenyl)piperazin-1-yl]-2-oxoethyl}-1,4,5,6-tetrahydrocyclopenta[c]pyrazole-3-carbonyl)piperazin-1-yl]acetamide] |
| 8.25 | 5.46 | Cc1cccc(N2CCN(C(=O)Cn3nc(C(=O)N4CC[C@H](CO)C4)c4c3CCC4)CC2)c1C [Example 83, 1-[4-(2,3-dimethylphenyl)piperazin-1-yl]-2-{3-[(3S)-3-(hydroxymethyl)pyrrolidine-1-carbonyl]-5,6-dihydrocyclopenta[c]pyrazol-1(4H)-yl}ethan-1-one] |
| 8.44 | 6.00 | Cc1c(Cl)cccc1N1CCN(C(=O)Cn2nc(C(=O)N3C[C@@H](C)O[C@@H](C)C3)c3c2CCC3)CC1 [Example 68, 1-[4-(3-chloro-2-methylphenyl)piperazin-1-yl]-2-{3-[(2R,6S)-2,6-dimethylmorpholine-4-carbonyl]-5,6-dihydrocyclopenta[c]pyrazol-1(4H)-yl}ethan-1-one] |
| 8.77 | 6.63 | Cc1cccc(N2CCN(C(=O)Cn3nc(C(=O)N4CCC(O)CC4)c4c3CCCC4)CC2)c1C [Example 466, 1-(4-(2,3-dimethylphenyl)piperazin-1-yl)-2-(3-(4-hydroxy-piperidine-1-carbonyl)-4,5,6,7-tetrahydro-1H-indazol-1-yl)ethanone] |
| 8.47 | 6.68 | Cc1cccc(N2CCN(C(=O)Cn3nc(C(=O)N4CC[C@@H](O)[C@H](F)C4)c4c3CCCC4)CC2)c1C [Example 472, 1-(4-(2,3-dimethylphenyl)piperazin-1-yl)-2-(3-((3R,4R)-3-fluoro-4-hydroxypiperidine-1-carbonyl)-4,5,6,7-tetrahydro-1H-indazol-1-yl)ethanone] |
| 8.39 | 6.72 | CC(=O)NC1CCN(C(=O)c2nn(CC(=O)N3CCN(c4cccc(C)c4C)CC3)c3c2CCC3)CC1 [Example 128, N-[1-(1-{2-[4-(2,3-dimethylphenyl)piperazin-1-yl]-2-oxoethyl}-1,4,5,6-tetrahydrocyclopenta[c]pyrazole-3-carbonyl)piperidin-4-yl]acetamide] |
